In article PMC12040169 (PLOS Biology, 2025) one finds viability data, which are given here for 82 compounds.

The nature of the data set: in vitro. Particulars: human, hela cells, % viability.

Consider `O=C(CCOc1ccc(F)cc1)Nc1cnc(-c2ccc(F)cc2)c(-c2ccoc2)n1` [CBK037166], for which the viability at 28.5 h, 10 µM was found to be 91.9%.

With `O=C(CS(=O)(=O)c1ccccc1)Nc1cnc(-c2ccc(F)cc2)c(-c2ccoc2)n1` [CBK037168], the viability at 28.5 h, 10 µM is 107%.

For `C[C@H](Nc1nccnc1-c1cccc(O)c1)c1ccccc1` [CBK037180], the viability at 28.5 h, 10 µM is 106%.

Consider `OCCN1CCN(c2cc(Nc3ccc(Oc4ccccc4)cc3)nc3ccnn23)CC1` [CBK037185], for which the viability at 28.5 h, 10 µM stood at 94.9%.

With `O=C(NCCO)c1cccc(-c2cc(N3CCCC3CO)n3nccc3n2)c1` (stereo not shown) [CBK037187], the viability at 28.5 h, 10 µM amounted to 96.7%.

With `CN(C)c1ccccc1-c1cc(NCCc2ccccn2)ncn1` [CBK037189], the viability at 28.5 h, 10 µM turned out to be 102%.

As for `CN(C)c1ccc(-c2cncc(NCc3ccc4c(c3)OCO4)n2)cc1` [CBK037190], the viability at 28.5 h, 10 µM was determined as 108%.

With `OCC1CCCN1c1cncc(-c2ccc3ccccc3c2)n1` (stereo not shown) [CBK037197], the viability at 28.5 h, 10 µM is 104%.

Consider `COc1ccc(-c2nc(NC(=O)CC#N)cnc2-c2ccc(F)cc2)cc1` [CBK037198], for which the viability at 28.5 h, 10 µM was 104%.

For `CC(C)(CO)CNc1cc(Cl)nc2ccnn12` [CBK037200], the viability at 28.5 h, 10 µM is 91%.

With `CN(C)c1ccc(Nc2cc(Cl)nc3ccnn23)cc1` [CBK037203], the viability at 28.5 h, 10 µM is 98.3%.

For the compound `CN(C)CCN(C)c1cc(-c2cccc(C(=O)O)c2)nc2ccnn12` [CBK037206], the viability at 28.5 h, 10 µM amounted to 101%.

For the compound `CCCNc1nccnc1-c1cc(C)c(O)c(C)c1` [CBK037210], the viability at 28.5 h, 10 µM was 87.6%.

As for `CN(C)CCN1CCN(c2cc(Nc3ccc(N(C)C)cc3)nc3ccnn23)CC1` [CBK037211], the viability at 28.5 h, 10 µM is 93.4%.

On to `CN1CCCN(c2cncc(-c3cccnc3)n2)CC1` [CBK037215], for which the viability at 28.5 h, 10 µM is 92.9%.

Take `Nc1cccc(-c2cncc(NCC3CCOCC3)n2)c1` [CBK037221]: the viability at 28.5 h, 10 µM turned out to be 96.8%.

Consider `COc1ccc(-c2cncc(N3CCCC3CO)n2)cc1` (stereo not shown) [CBK037223], for which the viability at 28.5 h, 10 µM worked out at 112%.

Take `CN1CCN(c2ccc(-c3cncc(NC4CCOCC4)n3)cn2)CC1` [CBK037229]: the viability at 28.5 h, 10 µM stood at 105%.

Turning to `CCCNc1nccnc1-c1ccccc1F` [CBK037231], the viability at 28.5 h, 10 µM was found to be 104%.

Regarding `COc1cc(Nc2cc(-c3cccc(N)c3)nc3ccnn23)cc(OC)c1OC` [CBK037236], the viability at 28.5 h, 10 µM was found to be 105%.

Take `Clc1cccc(-c2cncc(NCC3CCOCC3)n2)c1` [CBK037237]: the viability at 28.5 h, 10 µM came to 103%.

For the compound `Fc1ccc(-c2cn3ccnc3c(Nc3cccc(OC(F)(F)C(F)F)c3)n2)cc1Cl` [CBK037265], the viability at 28.5 h, 10 µM was found to be 98.1%.

Take `COc1ccccc1-c1cn2ccnc2c(N2CCCC2CO)n1` (stereo not shown) [CBK037266]: the viability at 28.5 h, 10 µM was 96.5%.

With `CCCC/C=C/c1nccnc1NCC1CC1` [CBK037268], the viability at 28.5 h, 10 µM is 100%.

For the compound `COc1ccc(C(C)C)cc1-c1cn2ccnc2c(NCc2ccco2)n1` [CBK037269], the viability at 28.5 h, 10 µM was 98.2%.

`c1ccc(CCNc2nc(-c3ccc(N4CCOCC4)cc3)cn3ccnc23)nc1` [CBK037271]: the viability at 28.5 h, 10 µM was 96.4%.

For the compound `CCCC/C=C/c1cncc(N2CCN(c3ccccn3)CC2)n1` [CBK037276], the viability at 28.5 h, 10 µM was 117%.

In the case of `OCCCNc1nccnc1-c1cccnc1` [CBK037277], the viability at 28.5 h, 10 µM amounted to 108%.

As to `COc1cc(-c2cn3ccnc3c(NCC3CCOCC3)n2)cc(OC)c1OC` [CBK037284], the viability at 28.5 h, 10 µM stood at 96.8%.

As for `COc1ccc(-c2cncc(NCC3CCOCC3)n2)cc1` [CBK037285], the viability at 28.5 h, 10 µM came out at 96.5%.

With `COc1cc(Nc2nc(-c3ccccc3F)cn3ccnc23)cc(OC)c1OC` [CBK037301], the viability at 28.5 h, 10 µM was found to be 98.9%.

With `Cc1ccc(S(=O)(=O)Nc2ccc(Nc3nc(-c4ccccc4)cn4ccnc34)cc2)cc1` [CBK037303], the viability at 28.5 h, 10 µM is 104%.

As for `CCCC/C=C/c1nccnc1NCc1ccc2c(c1)OCO2` [CBK037304], the viability at 28.5 h, 10 µM was 98.1%.

As for `c1cncc(-c2nccnc2NCC2CC2)c1` [CBK037310], the viability at 28.5 h, 10 µM came out at 80.9%.

`COc1cc(CNc2nccnc2-c2ccco2)cc(OC)c1OC` [CBK037320]: the viability at 28.5 h, 10 µM was 89.9%.

As to `COCCNc1nccnc1-c1cccc(C(F)(F)F)c1` [CBK037330], the viability at 28.5 h, 10 µM came to 89.7%.

On to `c1coc(-c2cn3ccnc3c(NCCc3ccncc3)n2)c1` [CBK037333], for which the viability at 28.5 h, 10 µM worked out at 93.5%.

Consider `COc1ccc(C(C)C)cc1-c1cn2ccnc2c(Nc2ccc(N3CCOCC3)cc2)n1` [CBK037338], for which the viability at 28.5 h, 10 µM worked out at 103%.

In the case of `O=C(c1ccco1)N1CCN(c2cncc(-c3cccc4cccnc34)n2)CC1` [CBK037339], the viability at 28.5 h, 10 µM was found to be 96.9%.

Consider `OCCCNc1nccnc1-c1ccco1` [CBK037346], for which the viability at 28.5 h, 10 µM turned out to be 99.2%.

For `OCCCNc1nccnc1-c1ccc(F)cc1` [CBK037348], the viability at 28.5 h, 10 µM was 109%.

In the case of `c1ccc(-c2cn3ccnc3c(NCC3CCOCC3)n2)cc1` [CBK037356], the viability at 28.5 h, 10 µM amounted to 99.1%.

`OCCC1CCCCN1c1nccnc1-c1ccsc1` (stereo not shown) [CBK037358]: the viability at 28.5 h, 10 µM came to 105%.

Take `c1coc(-c2cn3ccnc3c(Nc3ccc4[nH]ccc4c3)n2)c1` [CBK037361]: the viability at 28.5 h, 10 µM amounted to 91.9%.

Regarding `Clc1ccccc1-c1nccnc1NCc1cccs1` [CBK037362], the viability at 28.5 h, 10 µM is 98.6%.

On to `N#Cc1ccccc1N1CCN(c2cncc(-c3cccc4cccnc34)n2)CC1` [CBK037366], for which the viability at 28.5 h, 10 µM worked out at 102%.

For `CC(C)[C@@H](CO)Nc1nc(-c2ccccc2Cl)cn2ccnc12` [CBK037368], the viability at 28.5 h, 10 µM came to 101%.

Consider `CCCC/C=C/c1nccnc1NCCc1ccncc1` [CBK037370], for which the viability at 28.5 h, 10 µM came to 99.9%.

Take `COc1ccccc1-c1cn2ccnc2c(NCc2ccccc2)n1` [CBK037372]: the viability at 28.5 h, 10 µM is 92.7%.

With `COCCNc1nccnc1-c1cccnc1` [CBK037376], the viability at 28.5 h, 10 µM is 102%.

On to `c1cncc(CCNc2nccnc2-c2cccnc2)c1` [CBK037380], for which the viability at 28.5 h, 10 µM came to 93%.

For the compound `COc1cc(-c2cn3ccnc3c(N[C@@H]3CCN(Cc4ccccc4)C3)n2)cc(OC)c1OC` [CBK037385], the viability at 28.5 h, 10 µM was determined as 113%.

Consider `c1ccc2c(-c3cn4ccnc4c(N4CCOCC4)n3)cccc2c1` [CBK037387], for which the viability at 28.5 h, 10 µM amounted to 91.6%.

Regarding `Cc1cccc(C)c1-c1cn2ccnc2c(N2CCN(c3ccccn3)CC2)n1` [CBK037389], the viability at 28.5 h, 10 µM is 89%.

Consider `CN(Cc1ccccc1)c1nccnc1-c1ccsc1` [CBK037394], for which the viability at 28.5 h, 10 µM was 91%.

On to `COc1cc(CNc2nc(-c3cccc4ccccc34)cn3ccnc23)cc(OC)c1OC` [CBK037397], for which the viability at 28.5 h, 10 µM came out at 112%.

As to `CN(C)CCN(C)c1nc(-c2ccccc2F)cn2ccnc12` [CBK037406], the viability at 28.5 h, 10 µM is 99.8%.

Take `CCCC/C=C/c1nccnc1N(C)Cc1ccccc1` [CBK037412]: the viability at 28.5 h, 10 µM was 99.8%.

Turning to `COc1cc(Nc2nc(-c3ccco3)cn3ccnc23)cc(OC)c1OC` [CBK037413], the viability at 28.5 h, 10 µM was determined as 95.2%.

As to `COc1cc(CNc2nc(-c3c(C)cccc3C)cn3ccnc23)cc(OC)c1OC` [CBK037415], the viability at 28.5 h, 10 µM stood at 91.1%.

In the case of `O=[N+]([O-])c1cccc(CNc2nccnc2-c2ccccc2F)c1` [CBK037416], the viability at 28.5 h, 10 µM came to 102%.

In the case of `COc1cc(-c2nccnc2N(C)Cc2ccccc2)cc(OC)c1OC` [CBK037424], the viability at 28.5 h, 10 µM was 96.5%.

On to `O=C(Nc1cccc(OCc2ccccc2)c1)c1cnc(-c2ccc(Cl)cc2)c(-c2ccco2)c1` [CBK037429], for which the viability at 28.5 h, 10 µM was 93.9%.

Turning to `COc1ccc(-c2cc(C(=O)NCc3cc(Cl)cc(Cl)c3)cnc2-c2ccc(Cl)cc2)cn1` [CBK037431], the viability at 28.5 h, 10 µM amounted to 88.8%.

Consider `Cc1cccc(-c2ncc(C(=O)NCCN3CCOCC3)cc2-c2ccc(O)cc2)c1` [CBK037435], for which the viability at 28.5 h, 10 µM amounted to 105%.

For the compound `COc1cccc(OC)c1-c1cn2ccnc2c(NCc2ccccn2)n1` [CBK037439], the viability at 28.5 h, 10 µM came to 93.7%.

Turning to `OCCN1CCN(c2nc(-c3ccc4c(c3)OCO4)cn3ccnc23)CC1` [CBK037443], the viability at 28.5 h, 10 µM was determined as 99.1%.

Regarding `OCc1ccccc1-c1nccnc1NCCc1cccnc1` [CBK037444], the viability at 28.5 h, 10 µM was 94%.

In the case of `O=C(Nc1ccc2[nH]ccc2c1)c1cnc(-c2ccc(F)cc2)c(-c2ccncc2)c1` [CBK037451], the viability at 28.5 h, 10 µM was 91.9%.

`COc1ccc(-c2cc(C(=O)Nc3ccc(CCO)cc3)cnc2-c2cccc(C)c2)cn1` [CBK037461]: the viability at 28.5 h, 10 µM was found to be 91.8%.

Take `Nc1ccc(NC(=O)c2ccc(NC(=O)c3cnc(-c4ccccc4)c(-c4ccncc4)c3)cc2)cc1` [CBK037463]: the viability at 28.5 h, 10 µM came to 101%.

As for `O=C(NCC(F)(F)F)c1cnc(-c2ccc(Cl)cc2)c(-c2ccco2)c1` [CBK037468], the viability at 28.5 h, 10 µM turned out to be 86.2%.

As to `Fc1ccccc1-c1cn2ccnc2c(NCCc2cccnc2)n1` [CBK037473], the viability at 28.5 h, 10 µM turned out to be 88.1%.

Consider `OCc1cccc(-c2nccnc2NCc2ccc(OC(F)(F)F)cc2)c1` [CBK037476], for which the viability at 28.5 h, 10 µM was 108%.

`CCNC(=O)c1cnc(-c2ccc(F)cc2)c(-c2ccncc2)c1` [CBK037477]: the viability at 28.5 h, 10 µM came to 101%.

Regarding `c1ccc(CNc2nc(-c3ccco3)cn3ccnc23)nc1` [CBK037482], the viability at 28.5 h, 10 µM is 96.6%.

Consider `CC(=O)c1ccc(-c2nccnc2N2CCCC2CO)s1` (stereo not shown) [CBK037483], for which the viability at 28.5 h, 10 µM turned out to be 113%.

Regarding `COc1cccc(NC(=O)c2cnc(-c3ccccc3)c(-c3cccnc3)c2)c1OC` [CBK037487], the viability at 28.5 h, 10 µM was found to be 92.8%.

For the compound `COc1ccc(NC(=O)c2cnc(-c3cccc(C)c3)c(-c3ccco3)c2)cc1` [CBK037491], the viability at 28.5 h, 10 µM turned out to be 83.9%.

In the case of `c1ccc(Nc2nc(-c3ccc4c(c3)OCO4)cn3ccnc23)cc1` [CBK037494], the viability at 28.5 h, 10 µM came to 92.2%.

For the compound `CC(C)[C@@H](CO)Nc1nc(-c2cc(C(F)(F)F)cc(C(F)(F)F)c2)cn2ccnc12` [CBK037496], the viability at 28.5 h, 10 µM turned out to be 84.9%.

For the compound `CCCC/C=C/c1nccnc1NCc1ccncc1` [CBK037500], the viability at 28.5 h, 10 µM came out at 108%.

In general, viability refers to a read-out of living cells in per cent, often relative to untreated cells.
